Holding throughout (type): cell-based, human
Data set [1] has as its system KIF1A (NM_004321) expression in A549 cells. As to the kind of experiment: Oligo microarray gene expression, KIF1A. The following applies: A549 cells treated 48 hours at the IC20 concentration; Cy5/Cy3 ratio vs untreated control. On the procedure:
(§1) A549 cells were distributed in 6-well plate at the density of 25×10^4 cells/ml, to which lower aliphatic saturated aldehydes were treated for 48 hours at the concentrations determined in Example <1-2>. Total RNA was extracted from the cells by using trizol reagent according to the manufacturer's protocol (Invitrogen life technologies, USA), followed by purification by using RNease mini kit (Qiagen, USA). Genomic DNA was eliminated by using RNase-free DNase set (Qiagen, USA) during the RNA purification. The amount of total RNA was measured with spectrophotometer, and the concentration was confirmed by ND-1000 Spectrophotometer (Thermo Fisher Scientific Inc., USA) and Agilent 2100 Bioanalyzer (Agilent).
(§2) For oligomicroarray analysis, cDNA was synthesized by using the total RNA obtained from the experimental group treated with lower aliphatic saturated aldehydes prepared in Example <2-1>. 30 μg of the obtained total RNA and 2 μg of oilgo (dT) primer (1 μg/μl) were mixed together, followed by reaction at 65° C. for 10 minutes, which was transferred into ice for annealing. Upon completion of annealing, reagents were added thereto as shown in Table 1 to induce reverse transcription of the annealed RNA. The total RNA extracted from the control group A549 cells was labeled with Cy3-dUTP (green). The total RNA extracted from the experimental group A549 cells treated with lower aliphatic saturated aldehydes was labeled with Cy5-dUTP (red). At that time, the two samples were mixed and purified by using Microcon YM-30 column (Millipore, USA).
(§3) Hybridization and washing processes were performed according to the protocol provided by Ebiogen Inc.
(§4) Labeled cRNA was purified. 600 ng of the purified cRNA was reacted at 60° C. for 30 minutes for fragmentation. The prepared cRNA was mixed with 2×GEx Hybridization Buffer HI-RPM. After well mixing, the mixture was loaded on chip, followed by hybridization in the oven at 65° C. for 17 hours. 17 hours later, the chip was washed with GE Wash Buffer […] and with GE Wash Buffer 2 for 1 minute. Centrifugation was performed with the chip at 800 rpm for 3 minutes, followed by drying thereof.
(§5) Hybridization images on the slide were scanned with Agilent C scanner (Agilent technologies, CA, USA). At that time, the green fluorescent image indicated the activity of gene expressed specifically in the control group, while the red fluorescent image indicated the activity of gene expressed specifically in the experimental group. […] To obtain gene expression rate, the scanned images were analyzed by using Agilent Feature Extraction 10.7.3.1 (Agilent technologies, CA, USA). The extracted data proceeded to normalization by using Agilent GeneSpring GX 11.5.1 (Agilent technologies, CA, USA) to analyze gene expression pattern of each gene. The marker gene for lower aliphatic saturated aldehydes was selected from the obtained data.

Data set [2] deals with DHRS9 (NM_005771) expression in A549 cells. As to the kind of experiment: Oligo microarray gene expression, DHRS9. The settings on record: A549 cells treated 48 hours at the IC20 concentration; Cy5/Cy3 ratio vs untreated control. On the procedure:
as §1, §2, §3, §4, §5

Data set [3] has as its system B3GALT4 (NM_003782) expression in A549 cells. As to the kind of experiment: Oligo microarray gene expression, B3GALT4. The settings on record: A549 cells treated 48 hours at the IC20 concentration; Cy5/Cy3 ratio vs untreated control. As for the experimental part:
as §1, §2, §3, §4, §5

For data set [4], the system named is EMR2 (NM_013447) expression in A549 cells. As to the kind of experiment: Oligo microarray gene expression, EMR2. The settings on record: A549 cells treated 48 hours at the IC20 concentration; Cy5/Cy3 ratio vs untreated control. As for the experimental part: as §1, §2, §3, §4, §5
In data set [5] the test system is KIAA1199 (NM_018689) expression in A549 cells. As to the kind of experiment: Oligo microarray gene expression, KIAA1199. The following applies: A549 cells treated 48 hours at the IC20 concentration; Cy5/Cy3 ratio vs untreated control. On the procedure:
as §1, §2, §3, §4, §5

The nature of a further data set: in vitro. The following applies: human. On the procedure: (§6) A549 cells (Korean Cell Line Bank), the human lung cancer tissue derived cell line, were cultured in 100 mm dish containing RPMI (Gibro-BRL, USA) supplemented with 10% FBS until the confluency reached 80%. […] The concentration of vehicle was up to 0.1% in every experiment.
(§7) MTT assay was performed with A549 cell line according to the method of Mossman, et al (J. Immunol. Methods, 65, 55-63, 1983).
(§8) Particularly, the cells were distributed in 24-well plate (3.5×10^4 cells/well) containing RPMI (Gibro-BRL, USA) and then treated with lower aliphatic saturated aldehydes dissolved in DMSO. 48 hours later, 5 mg/ml of MTT (3-4,5-dimethylthiazol-2,5-diphenyltetra zolium bromide) was added thereto, followed by culture at 37° C. for 3 hours. Then, the medium was discarded and the formed formazan crystal was dissolved in 500 μl of DMSO, which was aliquoted in 96-well plate. OD540 was measured.

Another data set deals with A549 cells. As to the kind of experiment: in vitro. As for the experimental part:
as §6, §7, §8

`CCCCCC=O` [hexanal]: the “Median ratio of microarray, KIF1A” value in data set [1] is reported as 1.682. The “Median ratio of microarray, DHRS9” value in data set [2] is reported as 1.654. Moreover, the “Median ratio of microarray, B3GALT4” value in data set [3] is 0.574. In addition, the “Median ratio of microarray, EMR2” value in data set [4] is recorded as 1.89. Moreover, the “Median ratio of microarray, KIAA1199” value in data set [5] is given as 1.736. In “in vitro”, this compound returned an IC20 at 48 h of 800 µM.
Take `CCC=O` [propionaldehyde]: the “Median ratio of microarray, KIF1A” value in data set [1] stood at 3.814. In data set [2], the “Median ratio of microarray, DHRS9” value was 2.988. Besides, the “Median ratio of microarray, B3GALT4” value in data set [3] is reported as 0.483. In data set [4], the “Median ratio of microarray, EMR2” value is given as 6.906. Further, the “Median ratio of microarray, KIAA1199” value in data set [5] is 4.454. Further, the 20% effect concentration (IC20) at 48 h in the data set “in vitro” turned out to be 2500 µM.
As to `CCCCC=O` [valeraldehyde], the “Median ratio of microarray, KIF1A” value in data set [1] turned out to be 7.871. The “Median ratio of microarray, DHRS9” value in data set [2] turned out to be 2.088. Moreover, the “Median ratio of microarray, B3GALT4” value in data set [3] turned out to be 0.53. Moreover, the “Median ratio of microarray, EMR2” value in data set [4] is 6.242. In addition, the “Median ratio of microarray, KIAA1199” value in data set [5] was found to be 3.122. The compound further showed an IC20 at 48 h in “in vitro” of 1700 µM.
Turning to `CCCCCCCC=O` [octanal], the “Median ratio of microarray, KIF1A” value in data set [1] was 2.262. The “Median ratio of microarray, DHRS9” value in data set [2] turned out to be 3.057. For the same compound, the “Median ratio of microarray, B3GALT4” value in data set [3] is 0.564. Also, the “Median ratio of microarray, EMR2” value in data set [4] was determined as 1.785. Besides, the “Median ratio of microarray, KIAA1199” value in data set [5] was determined as 2.294. The 20% effect level in the data set “in vitro” (IC20 at 48 h) was put at 580 µM.
With `CCCCCCC=O` [heptanal], the “Median ratio of microarray, KIF1A” value in data set [1] was determined as 1.955. Further, in data set [2], the “Median ratio of microarray, DHRS9” value is recorded as 2.157. For the same compound, the “Median ratio of microarray, B3GALT4” value in data set [3] worked out at 0.634. Further, the “Median ratio of microarray, EMR2” value in data set [4] is 2.25. Further, in data set [5], the “Median ratio of microarray, KIAA1199” value was found to be 2.815. For the same compound, the concentration for an effect of 20% (IC20) at 48 h in the data set “in vitro” is 600 µM.
For the compound `CCCC=O` [butylaldehyde], the “Median ratio of microarray, KIF1A” value in data set [1] was 14.175. In data set [2], the “Median ratio of microarray, DHRS9” value came out at 2.353. For the same compound, the “Median ratio of microarray, B3GALT4” value in data set [3] is 0.498. Also, the “Median ratio of microarray, EMR2” value in data set [4] is 8.094. Moreover, the “Median ratio of microarray, KIAA1199” value in data set [5] was 1.733. For the same compound, the 20% effect level in the data set on A549 cells (IC20) was put at 4.6 mM.

One may read the IC20 as the concentration at which the effect reaches the 20% level.

For the origin of these results see patent US20130324428A1, “SPECIFIC BIOMARKER FOR IDENTIFICATION OF EXPOSURE TO LOWER ALIPHATIC SATURATED ALDEHYDES AND THE METHOD OF IDENTIFICATION USING THE SAME” (KOREA INSTITUTE OF SCIENCE AND TECHNOLOGY, priority 2012, published 2013).
